In data set [1] the test system is pathogens causing bovine mastitis. Nature of the data set: Activity against mastitis pathogens (general statement). It counts as cell-based.
Data set [2] in a line: Hydrophobicity and water solubility.

Take `C/C=C(\NC(=O)c1csc(-c2csc(-c3ccc4c(n3)-c3csc(n3)[C@H]([C@@H](C)O)NC(=O)c3csc(n3)[C@H](C(C)C)NC(=O)c3csc(n3)/C(=C/C)NC(=O)[C@H]([C@@H](C)O)NC(=O)c3csc-4n3)n2)n1)C(=O)NCC(C)=O` [P2, micrococcin P2]: the “activity against pathogens causing bovine mastitis” value in data set [1] is “highly active against pathogens causing bovine mastitis”. In data set [2], the hydrophobicity entry was “highly hydrophobic” and the solubility in water entry is given as “poorly soluble in water”.

The values above are taken from US6187800A, “Method for the prevention and treatment of mastitis” (Novartis Animal Health U.S., Inc., priority 1997, dated 2001).
